Measured values taken from US12466803B2 (priority 2021, dated 2025).
pIC50: −log10 of the molar value.

What follows are molecules tested on phospho (S293) BCKDHA in human skeletal myocytes (assay: Phospho BCKDHA Alpha Surefire Cell Assay). Conditions: 60 minutes with compound, geometric mean.
Assay type: cell-based
`C[C@@H]1CCc2cc(-c3c(C(=O)O)sc4ccccc34)ccc2O1` (single isomer, unassigned) [Example 45, 3-(2-methyl-3,4-dihydro-2H-1-benzopyran-6-yl)-1-benzothiophene-2-carboxylic acid, ENANT-1] was tested, and the pIC50 was < 4.22.
With `C[C@@H]1CCc2cc(-c3c(C(=O)O)sc4cc(Cl)ccc34)ccc2O1` (single isomer, unassigned) [Example 42, 6-chloro-3-(2-methyl-3,4-dihydro-2H-1-benzopyran-6-yl)-1-benzothiophene-2-carboxylic acid, ENANT-2] the pIC50 was < 4.62.
`C[C@@H]1CCc2c(ccc(-c3c(C(=O)O)sc4cc(F)ccc34)c2F)O1` (single isomer, unassigned) [Example 77, 6-fluoro-3-(5-fluoro-2-methyl-3,4-dihydro-2H-1-benzopyran-6-yl)-1-benzothiophene-2-carboxylic acid, ENANT-1] was tested, and the pIC50 was 5.07.
With `COc1c(F)cc(Cl)c(-c2c(C(=O)O)sc3cc(F)ccc23)c1F` (atropisomer, axis not shown) [Example 16, 3-(6-Chloro-2,4-difluoro-3-methoxyphenyl)-6-fluoro-1-benzothiophene-2-carboxylic acid, ATROP-2] the pIC50 was 7.82.
For `C[C@@H]1CCc2cc(-c3c(C(=O)O)sc4cc(F)ccc34)ccc2O1` (single isomer, unassigned) [Example 44, 6-fluoro-3-(2-methyl-3,4-dihydro-2H-1-benzopyran-6-yl)-1-benzothiophene-2-carboxylic acid, ENANT-2], the pIC50 was < 4.25.
With `C[C@@H]1CCc2cc(-c3c(C(=O)O)sc4ccccc34)ccc2O1` (single isomer, unassigned) [Example 46, 3-(2-methyl-3,4-dihydro-2H-1-benzopyran-6-yl)-1-benzothiophene-2-carboxylic acid, ENANT-2] the pIC50 was < 4.54.
In the case of `C[C@@H]1CCc2c(ccc(-c3c(C(=O)O)sc4cc(F)ccc34)c2F)O1` (single isomer, unassigned) [Example 78, 6-fluoro-3-(5-fluoro-2-methyl-3,4-dihydro-2H-1-benzopyran-6-yl)-1-benzothiophene-2-carboxylic acid, ENANT-2], the pIC50 was 5.41.

Same assay, conditions: Homo sapiens, 1 h, 60 minutes with compound, geometric mean
`O=C(O)c1sc2cc(F)cc(F)c2c1-c1ccccc1` [Example 5, Ammonium 4,6-difluoro-3-phenyl-1-benzothiophene-2-carboxylate] was tested, and the pIC50 was < 4.22.
Work on `CC1CCc2c(cc(F)c(-c3c(C(=O)O)sc4cc(Cl)ccc34)c2F)O1` (stereo not drawn) [Example 80, 6-chloro-3-(5,7-difluoro-2-methyl-3,4-dihydro-2H-1-benzopyran-6-yl)-1-benzothiophene-2-carboxylic acid] yielded a pIC50 of 5.40.
Molecule `Cc1c(F)c(F)cc(-c2c(C(=O)O)sc3cc(Cl)ccc23)c1F` [Example 10, 6-Chloro-3-(2,4,5-trifluoro-3-methylphenyl)-1-benzothiophene-2-carboxylic acid] has a pIC50 of 7.18.
`O=C(O)c1sc2cc(Cl)ccc2c1-c1cc(F)c(F)c(F)c1F` [Example 149, ammonium 6-chloro-3-(2,3,4,5-tetrafluorophenyl)-1-benzothiophene-2-carboxylate] was tested, and the pIC50 was 6.02.
`O=C(O)c1sc2cc(F)ccc2c1-c1cc(F)c(F)c(O)c1F` [Example 22, 6-Fluoro-3-(2,4,5-trifluoro-3-hydroxyphenyl)-1-benzothiophene-2-carboxylic acid] was tested, and the pIC50 was 4.64.
Work on `O=C(O)c1sc2cc(F)ccc2c1-c1c(F)cncc1F` [Example 107, ammonium 3-(3,5-difluoropyridin-4-yl)-6-fluoro-1-benzothiophene-2-carboxylate] yielded a pIC50 of 5.07.
With `O=C(O)c1sc2cc(Cl)ccc2c1-c1ccccc1` [Example 74, 6-chloro-3-phenyl-1-benzothiophene-2-carboxylic acid] the pIC50 was < 4.22.
`O=C(O)c1sc2cc(F)ccc2c1-c1c(F)cc(Cl)cc1F` [Example 59, 3-(4-chloro-2,6-difluorophenyl)-6-fluoro-1-benzothiophene-2-carboxylic acid] was tested, and the pIC50 was < 4.22.
With `Cc1ncc(F)c(-c2c(C(=O)O)sc3cc(F)ccc23)c1F` [Example 8, 3-(3,5-Difluoro-2-methylpyridin-4-yl)-6-fluoro-1-benzothiophene-2-carboxylic acid] the pIC50 was 6.14.
Molecule `COc1c(Cl)ccc(-c2c(C(=O)O)sc3cc(Cl)ccc23)c1F` [Example 138, 6-chloro-3-(4-chloro-2-fluoro-3-methoxyphenyl)-1-benzothiophene-2-carboxylic acid] has a pIC50 of 6.80.
For `COc1c(C#N)cc(F)c(-c2c(C(=O)O)sc3cc(F)ccc23)c1F` [Example 75, 3-(4-cyano-2,6-difluoro-3-methoxyphenyl)-6-fluoro-1-benzothiophene-2-carboxylic acid], the pIC50 was < 4.22.
`CCOc1c(Cl)ccc(-c2c(C(=O)O)sc3cc(F)ccc23)c1F` [Example 51, 3-(4-chloro-3-ethoxy-2-fluorophenyl)-6-fluoro-1-benzothiophene-2-carboxylic acid] was tested, and the pIC50 was 4.92.
With `C[C@H]1CCc2ccc(-c3c(C(=O)O)sc4cc(F)ccc34)cc2O1` (single isomer, unassigned) [Example 57, 6-fluoro-3-(2-methyl-3,4-dihydro-2H-1-benzopyran-7-yl)-1-benzothiophene-2-carboxylic acid, ENANT-1] the pIC50 was < 4.22.
Work on `O=C(O)c1sc2cc(F)ccc2c1-c1ccc(Cl)cc1F` [Example 64, 3-(4-chloro-2-fluorophenyl)-6-fluoro-1-benzothiophene-2-carboxylic acid] yielded a pIC50 of 4.96.
For `Cc1cc(-c2c(C(=O)O)sc3cc(F)ccc23)c(F)cc1Cl` [Example 106, 3-(4-chloro-2-fluoro-5-methylphenyl)-6-fluoro-1-benzothiophene-2-carboxylic acid], the pIC50 was 6.32.
For `COc1c(F)c(F)cc(-c2c(C(=O)O)oc3cc(F)ccc23)c1F` [Example 17, 6-Fluoro-3-(2,4,5-trifluoro-3-methoxyphenyl)-1-benzofuran-2-carboxylic acid], the pIC50 was 6.06.
`O=C(O)c1sc2cc(Cl)ccc2c1-c1cc(Cl)c(F)cc1F` [Example 132, ammonium 6-chloro-3-(5-chloro-2,4-difluorophenyl)-1-benzothiophene-2-carboxylate] gave a pIC50 of 6.33.
`COc1c(F)c(F)cc(-c2c(C(=O)O)oc3cc(Cl)ccc23)c1F` [Example 18, 6-Chloro-3-(2,4,5-trifluoro-3-methoxyphenyl)-1-benzofuran-2-carboxylic acid] was tested, and the pIC50 was 6.24.
For `CC1CCc2c(cc(F)c(-c3c(C(=O)O)sc4cc(F)ccc34)c2F)O1` (stereo not drawn) [Example 3, 3-(5,7-Difluoro-2-methyl-3,4-dihydro-2H-1-benzopyran-6-yl)-6-fluoro-1-benzothiophene-2-carboxylic acid], the pIC50 was 6.00.
Work on `COc1ccc(Cl)c(-c2c(C(=O)O)sc3cc(F)ccc23)c1F` [Example 150, 3-(6-chloro-2-fluoro-3-methoxyphenyl)-6-fluoro-1-benzothiophene-2-carboxylic acid] yielded a pIC50 of 5.96.
Work on `O=C(O)c1sc2cc(F)ccc2c1-c1c(F)ccc(Cl)c1F` [Example 97, 3-(3-chloro-2,6-difluorophenyl)-6-fluoro-1-benzothiophene-2-carboxylic acid] yielded a pIC50 of 6.27.
Work on `CCc1nccc(-c2c(C(=O)O)sc3cc(F)ccc23)c1F` [Example 112, 3-(2-ethyl-3-fluoropyridin-4-yl)-6-fluoro-1-benzothiophene-2-carboxylic acid] yielded a pIC50 of 5.64.
In the case of `O=C(O)c1sc2c(F)c(F)ccc2c1-c1ccccc1` [Example 4, 6,7-Difluoro-3-phenyl-1-benzothiophene-2-carboxylic acid], the pIC50 was < 4.22.
`Cc1c(F)c(-c2c(C(=O)O)sc3cc(Cl)ccc23)cc(F)c1Cl` [Example 136, ammonium 6-chloro-3-(4-chloro-2,5-difluoro-3-methylphenyl)-1-benzothiophene-2-carboxylate] gave a pIC50 of 6.92.
For `O=C(O)c1sc2cc(F)ccc2c1-c1c(F)cc2c(c1F)CCCO2` [Example 1, 3-(5,7-Difluoro-3,4-dihydro-2H-1-benzopyran-6-yl)-6-fluoro-1-benzothiophene-2-carboxylic acid], the pIC50 was 6.37.
In the case of `O=C(O)c1sc2cc(F)ccc2c1-c1c(F)cc(F)cc1F` [Example 60, 6-fluoro-3-(2,4,6-trifluorophenyl)-1-benzothiophene-2-carboxylic acid], the pIC50 was 5.54.
In the case of `CC1CCc2cc(-c3c(C(=O)O)sc4cc(F)ccc34)c(F)cc2O1` (stereo not drawn) [Example 67, 6-fluoro-3-(7-fluoro-2-methyl-3,4-dihydro-2H-1-benzopyran-6-yl)-1-benzothiophene-2-carboxylic acid], the pIC50 was 5.29.
In the case of `O=C(O)c1sc2cc(F)ccc2c1-c1ccc2c(c1)CCCC2` [Example 37, 6-fluoro-3-(5,6,7,8-tetrahydronaphthalen-2-yl)-1-benzothiophene-2-carboxylic acid], the pIC50 was 4.60.
`CCOc1ccc(-c2c(C(=O)O)sc3cc(F)ccc23)c(F)c1F` [Example 34, 3-(4-ethoxy-2,3-difluorophenyl)-6-fluoro-1-benzothiophene-2-carboxylic acid] was tested, and the pIC50 was < 4.22.
Molecule `O=C(O)c1sc2cc(F)ccc2c1-c1ccc(Cl)c(F)c1F` [Example 65, 3-(4-chloro-2,3-difluorophenyl)-6-fluoro-1-benzothiophene-2-carboxylic acid] has a pIC50 of 5.74.
`COc1ccc(-c2c(C(=O)O)sc3cc(F)ccc23)c(F)c1F` [Example 35, 3-(2,3-difluoro-4-methoxyphenyl)-6-fluoro-1-benzothiophene-2-carboxylic acid] was tested, and the pIC50 was < 4.22.
`COc1c(F)ccc(-c2c(C(=O)O)sc3cc(Cl)ccc23)c1F` [Example 13, 6-Chloro-3-(2,4-difluoro-3-methoxyphenyl)-1-benzothiophene-2-carboxylic acid] was tested, and the pIC50 was 7.32.
`COc1c(Cl)cc(F)c(-c2c(C(=O)O)sc3cc(F)ccc23)c1F` [Example 52, 3-(4-chloro-2,6-difluoro-3-methoxyphenyl)-6-fluoro-1-benzothiophene-2-carboxylic acid] gave a pIC50 of 7.19.
`O=C(O)c1sc2cc(F)ccc2c1-c1cc(Cl)c(Cl)cc1F` [Example 7, 3-(4,5-Dichloro-2-fluorophenyl)-6-fluoro-1-benzothiophene-2-carboxylic acid] was tested, and the pIC50 was 7.03.
`COc1ncc(F)c(-c2c(C(=O)O)sc3cc(F)ccc23)c1F` [Example 61, 3-(3,5-difluoro-2-methoxypyridin-4-yl)-6-fluoro-1-benzothiophene-2-carboxylic acid] showed a pIC50 of 5.68.
